One data set in a line: clinical. The settings on record: human, in vivo. An excerpt:
Voruciclib half life is designated as t½ in the tables (expressed in hours).
Voruciclib volume of distribution is designated as Vz/F (expressed in liters).

For a further data set, the system named is Huh-7 xenografts. As to the kind of experiment: CIVO intratumoral microinjection, Huh-7 xenografts. It is filed as in vivo. The settings on record: Huh-7 liver cancer model. An excerpt:
FIG. 6 depicts the CIVO injection array.
CC3 is not elevated over background levels at any injection site.

Structures are written as SMILES.

Consider `CN1CC[C@@H](c2c(O)cc(O)c3c(=O)cc(-c4ccc(C(F)(F)F)cc4Cl)oc23)[C@@H]1CO` [Voruciclib, (+)-trans-2-(2-Chloro-4-trifluoromethylphenyl)-5,7-dihydroxy-8-(2-hydroxymethyl-1-methylpyrrolidin-3-yl)-chromen-4-one], for which, in “clinical”, the “additional time to clear from the tissue after it clears the plasma” value was 3 days, the “time for the drug to be eliminated from the plasma after stopping” value lay within 5 to 10 days, the volume of distribution result is “High volume of distribution” and the “volume of distribution relative to blood volume” value is recorded as approximately 60 times. Also, the half-life in the data set “clinical” (Half life) was in the range of 24 to 28 h. The “apoptotic cells (CC3)” value in the data set on Huh-7 xenografts is “do not result in an increase in apoptotic cells”.

One may read the half-life as the time in which the quantity being followed falls by half.

The values above are taken from patent US20240016781A1, “TREATMENT OF KRAS MUTANT CANCERS” (MEI Pharma, Inc., priority 2020, published 2024).
